# Test results: publication PMC4857601 (Nature chemistry, 2016)
# Positions count from the first letter of the chain named.
# Key:
# [1] = target: T1, DFsc (2A3H-DFsc), [DFsc-Zn(II)2] (synthetic construct, UniProt Z9QLD2D1S0, H107N); test: UV/vis; format: binding; conditions: Zn(II)-bound form; bound as semiquinone derived from 4-t-butylcatechol
# T1 sequence (Z9QLD2D1S0 1-115 H107N): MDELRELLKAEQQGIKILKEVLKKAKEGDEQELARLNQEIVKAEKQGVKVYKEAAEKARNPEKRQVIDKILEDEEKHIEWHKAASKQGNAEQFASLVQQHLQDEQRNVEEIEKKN
# [2] = target: T2, DFsc (2A3H-DFsc), [DFsc-Zn(II)2] (synthetic construct, UniProt Z9QLD2D1S0, H107A); test: UV/vis; format: binding; conditions: Zn(II)-bound form; bound as semiquinone derived from 4-t-butylcatechol
# T2 sequence (Z9QLD2D1S0 1-115 H107A): T1 sequence (Z9QLD2D1S0 1-115 H107N) with N107A
smiles,measurement,setting,value
CC(C)(C)c1ccc(O)c(O)c1,UV/vis,[1],The variants also form a 4-t-butylcatechol-derived SQ• complex
same,UV/vis,[2],The variants also form a 4-t-butylcatechol-derived SQ• complex
